# Patent EP2380890A1, “New 7,8-dihydro-1,6-naphthyridin-5(6h)-one-derivatives as PDE4 inhibitors” (Almirall, S.A., priority 2010, dated 2011)
# Biological target: PDE4
# Assay: PDE4 assay: [3H] cAMP Scintillation Proximity Assay (SPA) of phosphodiesterase activity
# Assay type: biochemical
# Settings: yeast extract of recombinant PDE4 enzyme, 30 nM [3H] cAMP, 1 h at room temperature, pH 7.5
# Description: Measurement of Phosphodiesterase Activity was done using a [3H] cAMP Scintillation Proximity Assay (SPA) (GE Healthcare). Compounds to be tested were disolved in DMSO at a stock concentration of 1mM and serial dilutions were prepared in 50% DMSO to determine IC50s.
# The reactions were conducted in 96-well plates (Corning, Ref.3604) at room temperature, in 0.1 mL of reaction buffer containing (final concentrations): 50 mM Tris-HCl, pH 7.5, 8.3 mM MgCl2, 1.7 mM EGTA, 30 nM [3H] cAMP (approximately 150000 dpm/well) with or without the inhibitors. The reaction was initiated by adding yeast extract of recombinant PDE4 enzyme.
# Plates were shaken for 1 h at room temperature and the incubation was terminated by adding 50 µL (0.5 mg /well) of SPA ytrium silicate beads (RPNQ 0150; GE Healthcare) in the presence of zinc sulfate. Plates were stored overnight in the dark and read on a TRILUX microtiter plate reader (Perkin Elmer).
row,SMILES,IC50
1,"COc1cccc(Nc2cc(-c3cccc(Sc4cccc(OC)c4)c3)nc3c2C(=O)NCC3)c1 [Example 16, 4-[(3-Methoxyphenyl)amino]-2-{3-[(3-methoxyphenyl)thio]phenyl}-7,8-dihydro-1,6-naphthyridin-5(6H)-one]",1.6 nM
2,"COc1cc(Nc2cc(-c3ccccc3)nc3c2C(=O)NCC3)ccc1C(=O)O [Example 19, 2-Methoxy-4-[(5-oxo-2-phenyl-5,6,7,8-tetrahydro-1,6-naphthyridin-4-yl)amino]benzoic acid]",2.3 nM
3,"O=C1NCCc2nc(-c3ccccc3)cc(Nc3cccc4ncccc34)c21 [Example 24, 2-Phenyl-4-(quinolin-5-ylamino)-7,8-dihydro-1,6-naphthyridin-5(6H)-one]",0.96 nM
4,"O=C(O)c1ccc(Nc2cc(-c3ccccc3)nc3c2C(=O)NCC3)cc1 [Example 25, 4-[(5-Oxo-2-phenyl-5,6,7,8-tetrahydro-1,6-naphthyridin-4-yl)amino]benzoic acid]",9 nM
5,"COc1cccc(Nc2cc(-c3cccc(-c4cccc(C(N)=O)c4)c3)nc3c2C(=O)NCC3)c1 [Example 12, 3'-{4-[(3-Methoxyphenyl)amino]-5-oxo-5,6,7,8-tetrahydro-1,6-naphthyridin-2-yl}biphenyl-3-carboxamide]",0.28 nM
6,"COc1cccc(Nc2cc(-c3cccc(OC)c3)nc3c2C(=O)NCC3)c1 [Example 8, 2-(3-Methoxyphenyl)-4-[(3-methoxyphenyl)amino]-7,8-dihydro-1,6-naphthyridin-5(6H)-one]",8 nM
7,"COc1cccc(Nc2cc(-c3ccncc3)nc3c2C(=O)NCC3)c1 [Example 22, 4-[(3-Methoxyphenyl)amino]-2-pyridin-4-yl-7,8-dihydro-1,6-naphthyridin-5(6H)-one]",3.6 nM
8,"COc1cccc(Nc2cc(-c3ccccc3OC)nc3c2C(=O)NCC3)c1 [Example 9, 2-(2-Methoxyphenyl)-4-[(3-methoxyphenyl)amino]-7,8-dihydro-1,6-naphthyridin-5(6H)-one]",32 nM
9,"NC(=O)c1ccc(Nc2cc(-c3ccccc3)nc3c2C(=O)NCC3)cc1 [Example 18, 4-[(5-Oxo-2-phenyl-5,6,7,8-tetrahydro-1,6-naphthyridin-4-yl)amino]benzamide]",1.5 nM
10,"COc1cccc(Nc2cc(-c3cccc(-c4cccc(C(=O)NCCN(C)C)c4)c3)nc3c2C(=O)NCC3)c1 [Example 14, N-[2-(Dimethylamino)ethyl]-3'-{4-[(3-methoxyphenyl)amino]-5-oxo-5,6,7,8-tetrahydro-1,6-naphthyridin-2-yl}biphenyl-3-carboxamide]",0.23 nM
11,"O=C1NCCc2nc(-c3ccccc3)cc(NCc3ccncc3)c21 [Example 17, 2-Phenyl-4-[(pyridin-4-ylmethyl)amino]-7,8-dihydro-1,6-naphthyridin-5(6H)-one]",25 nM
12,"O=C1NCCc2nc(-c3ccccc3)cc(Nc3ccc(CCO)cc3)c21 [Example 2, 4-{[4-(2-Hydroxyethyl)phenyl]amino}-2-phenyl-7,8-dihydro-1,6-naphthyridin-5(6H)-one]",12 nM
13,"COc1cccc(Nc2cc(-c3ccccc3)nc3c2C(=O)NCC3)c1 [Example 1, 4-[(3-Methoxyphenyl)amino]-2-phenyl-7,8-dihydro-1,6-naphthyridin-5(6H)-one]",1.6 nM
14,"COc1cccc(Nc2cc(-c3cccc(-c4ccc(C(=O)O)cc4)c3)nc3c2C(=O)NCC3)c1 [Example 13, 3'-{4-[(3-Methoxyphenyl)amino]-5-oxo-5,6,7,8-tetrahydro-1,6-naphthyridin-2-yl}biphenyl-4-carboxylic acid]",0.34 nM

# Now from value to molecule:
row,IC50,SMILES
1,0.9 nM,"N#C/N=C1\NCCc2nc(-c3ccc(F)c(F)c3)cc(Nc3cccc4ncccc34)c21 [Example 57, [(5Z)-2-(3,4-Difluorophenyl)-4-(quinolin-5-ylamino)-7,8-dihydro-1,6-naphthyridin-5(6H)-ylidene]cyanamide]"
2,9 nM,"O=C1NCCc2nc(-c3ccccc3)cc(Nc3ccc(C[C@@H](O)CO)cc3)c21 [Example 47, 4-({4-[(2R)-2,3-dihydroxypropyl]phenyl}amino)-2-phenyl-7,8-dihydro-1,6-naphthyridin-5(6H)-one]"
3,0.05 nM,"Cc1c(F)cc(C(=O)NC2CC2)cc1-c1cccc(-c2cc(Nc3cccc4ncccc34)c3c(n2)CCNC3=O)c1 [Example 61, N-Cyclopropyl-5-fluoro-6-methyl-3'-[5-oxo-4-(quinolin-5-ylamino)-5,6,7,8-tetrahydro-1,6-naphthyridin-2-yl]biphenyl-3-carboxamide]"
4,117 nM,"COc1cccc(Nc2cc(-c3ccccc3)nc3c2C(=O)NC(C)C3)c1 (stereo not drawn) [Example 26, 4-[(3-Methoxyphenyl)amino]-7-methyl-2-phenyl-7,8-dihydro-1,6-naphthyridin-5(6H)-one]"
5,6 nM,"O=C1NCCc2nc(-c3ccccc3)cc(Nc3n[nH]c4ncccc34)c21 [Example 41, 2-Phenyl-4-(1H-pyrazolo[3,4-b]pyridin-3-ylamino)-7,8-dihydro-1,6-naphthyridin-5(6H)-one]"
6,0.17 nM,"O=C(NC1CC1)c1cccc(-c2cccc(-c3cc(Nc4cccc5ncccc45)c4c(n3)CCNC4=O)c2)c1 [Example 49, N-Cyclopropyl-3'-[5-oxo-4-(quinolin-5-ylamino)-5,6,7,8-tetrahydro-1,6-naphthyridin-2-yl]biphenyl-3-carboxamide]"
7,14 nM,"O=C1NCCc2nc(-c3ccccc3)cc(Nc3cccc4cnccc34)c21 [Example 37, 4-(Isoquinolin-5-ylamino)-2-phenyl-7,8-dihydro-1,6-naphthyridin-5(6H)-one]"
8,9 nM,"COc1cccc(Nc2cc(C3CC3)nc3c2C(=O)NCC3)c1 [Example 33, 2-Cyclopropyl-4-[(3-methoxyphenyl)amino]-7,8-dihydro-1,6-naphthyridin-5(6H)-one]"
9,0.81 nM,"COc1cccc(Nc2cc(-c3cccc(-c4cc(C(=O)O)ccc4Cl)c3)nc3c2C(=O)NCC3)c1 [Example 35, 6-Chloro-3'-{4-[(3-methoxyphenyl)amino]-5-oxo-5,6,7,8-tetrahydro-1,6-naphthyridin-2-yl}biphenyl-3-carboxylic acid]"
10,0.43 nM,"O=C1NCCc2nc(-c3ccccc3)cc(Nc3cccc4c3ccc[n+]4[O-])c21 [Example 51, 4-[(1-Oxidoquinolin-5-yl)amino]-2-phenyl-7,8-dihydro-1,6-naphthyridin-5(6H)-one]"
11,640 nM,"COc1cccc(Nc2cc(-c3ccccc3)nc3c2C(=O)NCC3C)c1 (stereo not drawn) [Example 44, 4-[(3-Methoxyphenyl)amino]-8-methyl-2-phenyl-7,8-dihydro-1,6-naphthyridin-5(6H)-one]"
12,52 nM,"COc1cccc(Nc2nc(-c3ccccc3)nc3c2C(=O)NCC3)c1 [Example 32, 4-[(3-Methoxyphenyl)amino]-2-phenyl-7,8-dihydropyrido[4,3-d]pyrimidin-5(6H)-one]"
13,0.05 nM,"O=C(NC1CC1)c1cccc(-c2cccc(-c3cc(Nc4cccc5c4ccc[n+]5[O-])c4c(n3)CCNC4=O)c2)c1 [Example 56, N-Cyclopropyl-3'-{4-[(1-oxidoquinolin-5-yl)amino]-5-oxo-5,6,7,8-tetrahydro-1,6-naphthyridin-2-yl}biphenyl-3-carboxamide]"
14,2.3 nM,"O=C1NCCc2nc(-c3ccccc3)cc(Nc3ccc4ncccc4c3)c21 [Example 38, 2-Phenyl-4-(quinolin-6-ylamino)-7,8-dihydro-1,6-naphthyridin-5(6H)-one]"
15,10 nM,"COc1cccc(Nc2cc(-c3cccc(-c4cc(C(=O)O)ccc4O)c3)nc3c2C(=O)NCC3)c1 [Example 43, 6-Hydroxy-3'-{4-[(3-methoxyphenyl)amino]-5-oxo-5,6,7,8-tetrahydro-1,6-naphthyridin-2-yl}biphenyl-3-carboxylic acid]"
16,0.105 nM,"CN(C)CCCNC(=O)c1cccc(-c2cccc(-c3cc(Nc4cccc5ncccc45)c4c(n3)CCNC4=O)c2)c1 [Example 59, N-[3-(Dimethylamino)propyl]-3'-[5-oxo-4-(quinolin-5-ylamino)-5,6,7,8-tetrahydro-1,6-naphthyridin-2-yl]biphenyl-3-carboxamide]"
